Data from patent publication US9179694B2, “Method and composition for enhancing milk production and milk component concentrations” (PURINA ANIMAL NUTRITION LLC, priority 2003, dated 2015).

Assay: Dry matter feed intake in sorbitol feeding trials
Assay type: in vivo, Holstein cows
Procedure: To determine the dry matter weight (or dry matter basis or dry basis) of a particular sample, the sample is first weighed. The weighed sample is then dried in an oven at a temperature that is adequate to drive off moisture from the sample without degrading the sample components, such as a temperature ranging from about 100° C. to about 110° C. The oven drying is continued until the weight of the dried sample remains constant, despite additional oven drying. During the pre-partum period, for all cows utilized in Example One or Example Two, the pre-partum control feed, as modified to include any sorbitol indicated above for the different trials, was placed in the feeding troughs of the different cows participating in the different trials once daily in the morning. Thereafter, these different pre-partum feeds (the pre-partum control feed, including any incorporated sorbitol dosage of a particular trial during the pre-partum period) of the different trials were lightly stirred, separately and individually, in front of the cows of the different trials three times per day during the pre-partum period to encourage additional feed ingestion by the cows. Leftover rations from the previous day's feeding were collected and weighed from each feeding trough during the pre-partum period, prior to feeding the test cows on a subsequent day. The cows of the different trials received a sufficient amount of the pre-partum to ensure at least about ten weight percent of the pre-partum feeds of the different trials remained in the feeding troughs of each trial each day of the pre-partum period, based on the amount of the different pre-partum feeds of the different trials provided at the beginning of each day. Feed refusals were measured daily during the pre-partum period, and water was supplied ad libitum. During the early post-partum period, for all cows utilized in Example One or Example Two, the first post-partum control feed, as modified to include any sorbitol indicated above for the different trials, was placed in the feeding troughs of the different cows participating in the different trials once daily in the morning. Thereafter, these first post-partum feeds (the first post-partum control feed, including any incorporated sorbitol dosage of a particular trial during the early post-partum period) of the different trials were lightly stirred, separately and individually, in front of the cows of the different trials three times per day during the early post-partum period to encourage additional feed ingestion by the cows. Leftover rations from the previous day's feeding were collected and weighed from each feeding trough during the early post-partum period, prior to feeding the test cows on a subsequent day. The cows of the different trials received a sufficient amount of the first post-partum feed to ensure at least about ten weight percent of the first post-partum feeds of the different trials remained in the feeding troughs of each trial each day of the early post-partum period, based on the amount of the different first post-partum feeds of the different trials provided at the beginning of each day. Feed refusals were measured daily during the early post-partum period, and water was supplied ad libitum. […] Thereafter, the second post-partum control feed were lightly stirred, separately and individually, in front of the cows of the different trials three times per day during the weeks +5 through +8 to encourage additional feed ingestion by the cows. Leftover rations from the previous day's feeding were collected and weighed from each feeding trough during weeks +5 through +8, prior to feeding the test cows on a subsequent day. […]

SMILES: OC[C@@H](O)[C@@H](O)[C@H](O)[C@@H](O)CO [sorbitol]
- Dry Matter Feed Intake (Pre/Post Trial #1 (150/125/100 g/day in wk −3..−1/+1..+4/+5..+8), multiparious cows, week +7, two-trial comparison with Control Trial #2 (Table 22)): 54.9 lbs/day
- Dry Matter Intake (Pre/Post Trial #1 (150/125/100 g/day in wk −3..−1/+1..+4/+5..+8), multiparious cows, week +8): 57.1 lbs/day
- Dry Matter Feed Intake (Pre/Post Trial #1 (150/125/100 g/day in wk −3..−1/+1..+4/+5..+8), multiparious cows, week +8, two-trial comparison with Control Trial #2 (Table 22)): 57.4 lbs/day
- Dry Matter Intake (Pre/Post Trial #1 (150/125/100 g/day in wk −3..−1/+1..+4/+5..+8), multiparious cows, week −1): 33.3 lbs/day
- Dry Matter Feed Intake (Pre/Post Trial #1 (150/125/100 g/day in wk −3..−1/+1..+4/+5..+8), multiparious cows, week −1, two-trial comparison with Control Trial #2 (Table 22)): 33.4 lbs/day
- Dry Matter Intake (Pre/Post Trial #1 (150/125/100 g/day in wk −3..−1/+1..+4/+5..+8), multiparious cows, week −2): 34.6 lbs/day
- Dry Matter Feed Intake (Pre/Post Trial #1 (150/125/100 g/day in wk −3..−1/+1..+4/+5..+8), multiparious cows, week −2, two-trial comparison with Control Trial #2 (Table 22)): 35.2 lbs/day
- Change in Dry Matter Feed Intake (Pre/Post Trial #1 (150/125/100 g/day in wk −3..−1/+1..+4/+5..+8), multiparious cows, week −2 versus −1): −1.39 lbs/day
- Change in Dry Matter Feed Intake (Pre/Post Trial #1 (150/125/100 g/day in wk −3..−1/+1..+4/+5..+8), multiparious cows, week −2 versus −1, two-trial comparison with Control Trial #2 (Table 22)): −1.83 lbs/day
- Dry Matter Intake (Pre/Post Trial #1 (150/125/100 g/day in wk −3..−1/+1..+4/+5..+8), multiparious cows, week −3): 29.6 lbs/day
- Dry Matter Feed Intake (Pre/Post Trial #1 (150/125/100 g/day in wk −3..−1/+1..+4/+5..+8), multiparious cows, week −3, two-trial comparison with Control Trial #2 (Table 22)): 30.7 lbs/day
- Dry Matter Intake (Pre/Post Trial #1 (150/125/100 g/day in wk −3..−1/+1..+4/+5..+8), multiparious cows, weeks +1 through +4): 45.4 lbs/day
- Dry Matter Feed Intake (Pre/Post Trial #1 (150/125/100 g/day in wk −3..−1/+1..+4/+5..+8), multiparious cows, weeks +1 through +4, two-trial comparison with Control Trial #2 (Table 22)): 45.7 lbs/day
- Dry Matter Intake (Pre/Post Trial #1 (150/125/100 g/day in wk −3..−1/+1..+4/+5..+8), multiparious cows, weeks +1 through +8): 50.1 lbs/day
- Dry Matter Feed Intake (Pre/Post Trial #1 (150/125/100 g/day in wk −3..−1/+1..+4/+5..+8), multiparious cows, weeks +1 through +8, two-trial comparison with Control Trial #2 (Table 22)): 50.4 lbs/day
- Dry Matter Intake (Pre/Post Trial #1 (150/125/100 g/day in wk −3..−1/+1..+4/+5..+8), multiparious cows, weeks +5 through +8): 54.9 lbs/day
- Dry Matter Feed Intake (Pre/Post Trial #1 (150/125/100 g/day in wk −3..−1/+1..+4/+5..+8), multiparious cows, weeks +5 through +8, two-trial comparison with Control Trial #2 (Table 22)): 55.3 lbs/day
- Dry Matter Intake (Pre/Post Trial #1 (150/125/100 g/day in wk −3..−1/+1..+4/+5..+8), multiparious cows, weeks −3 through −1): 32.6 lbs/day
- Dry Matter Feed Intake (Pre/Post Trial #1 (150/125/100 g/day in wk −3..−1/+1..+4/+5..+8), multiparious cows, weeks −3 through −1, two-trial comparison with Control Trial #2 (Table 22)): 33.0 lbs/day
- greater increase of dry matter feed intake (Pre/Post Trial #1 (150/125/100 g/day) compared to Control Trial #2, multiparous cows, week −1 before calving versus week +1 after calving): 3.19 pounds per day
- greater daily rate of dry matter feed intake (Pre/Post Trial #1 (150/125 g/day pre-/early post-partum) versus Pre/Post Trial #2 (75/75 g/day), multiparious cows, early post-partum period (weeks +1 through +4)): 7.6%
- Dry Matter Intake (Pre/Post Trial #2 (75/75/100 g/day in wk −3..−1/+1..+4/+5..+8), multiparious cows, week +1): 33.1 lbs/day
- Change in Dry Matter Feed Intake (Pre/Post Trial #2 (75/75/100 g/day in wk −3..−1/+1..+4/+5..+8), multiparious cows, week +1 versus −1): 0.72 lbs/day
- Dry Matter Intake (Pre/Post Trial #2 (75/75/100 g/day in wk −3..−1/+1..+4/+5..+8), multiparious cows, week +2): 41.2 lbs/day
- Dry Matter Intake (Pre/Post Trial #2 (75/75/100 g/day in wk −3..−1/+1..+4/+5..+8), multiparious cows, week +3): 45.3 lbs/day
- Dry Matter Intake (Pre/Post Trial #2 (75/75/100 g/day in wk −3..−1/+1..+4/+5..+8), multiparious cows, week +4): 49.8 lbs/day
- Dry Matter Intake (Pre/Post Trial #2 (75/75/100 g/day in wk −3..−1/+1..+4/+5..+8), multiparious cows, week +5): 53.6 lbs/day
- Dry Matter Intake (Pre/Post Trial #2 (75/75/100 g/day in wk −3..−1/+1..+4/+5..+8), multiparious cows, week +6): 54.2 lbs/day
- Dry Matter Intake (Pre/Post Trial #2 (75/75/100 g/day in wk −3..−1/+1..+4/+5..+8), multiparious cows, week +7): 53.3 lbs/day
- Dry Matter Intake (Pre/Post Trial #2 (75/75/100 g/day in wk −3..−1/+1..+4/+5..+8), multiparious cows, week +8): 55.0 lbs/day
- Dry Matter Intake (Pre/Post Trial #2 (75/75/100 g/day in wk −3..−1/+1..+4/+5..+8), multiparious cows, week −1): 32.3 lbs/day
- Dry Matter Intake (Pre/Post Trial #2 (75/75/100 g/day in wk −3..−1/+1..+4/+5..+8), multiparious cows, week −2): 36.3 lbs/day
- Change in Dry Matter Feed Intake (Pre/Post Trial #2 (75/75/100 g/day in wk −3..−1/+1..+4/+5..+8), multiparious cows, week −2 versus −1): −3.91 lbs/day
- Dry Matter Intake (Pre/Post Trial #2 (75/75/100 g/day in wk −3..−1/+1..+4/+5..+8), multiparious cows, week −3): 31.9 lbs/day
- Dry Matter Intake (Pre/Post Trial #2 (75/75/100 g/day in wk −3..−1/+1..+4/+5..+8), multiparious cows, weeks +1 through +4): 42.2 lbs/day
- Dry Matter Intake (Pre/Post Trial #2 (75/75/100 g/day in wk −3..−1/+1..+4/+5..+8), multiparious cows, weeks +1 through +8): 48.2 lbs/day
- Dry Matter Intake (Pre/Post Trial #2 (75/75/100 g/day in wk −3..−1/+1..+4/+5..+8), multiparious cows, weeks +5 through +8): 54.1 lbs/day
- Dry Matter Intake (Pre/Post Trial #2 (75/75/100 g/day in wk −3..−1/+1..+4/+5..+8), multiparious cows, weeks −3 through −1): 33.2 lbs/day
- decrease in dry matter feed intake (average of means of Pre-Partum Trial #2, Pre/Post Trial #1 and Pre/Post Trial #2 versus Control Trial #2, multiparious cows, pre-partum period (weeks −3 through −1)): 4.9%
